Experimental findings from patent US10597378B2 (priority 2017, dated 2020) are described below.

Like-named read-outs stand apart in the source and are kept apart here.

As usually defined, the EC50 is the concentration needed to bring the measured effect to its halfway point.

For assay [1], the target named is MOR (Homo sapiens, UniProt P35372). In words: cell-based. On the set-up: expressed in transfected cells; host or cells: CHO-K1/MOR/Ga15 cells. The conditions noted are these: for EC50: read-out: FLIPR Ca2+ EC50; for FLIPR Ca2+ AUC: area under the [Ca2+]i fluorescence response curve, up to 90 s. The protocol: In an exemplary in vitro assay for identifying MOR agonists, cells that express a MOR are treated with a test compound in a cellular calcium fluorescent assay and calcium fluorescence intensity is then measured to determine whether the MOR is activated. A test compound is identified as a MOR agonist if the MOR is activated.
EC50 herein refers to the concentration of a compound that induces a response halfway between the baseline and the maximum after a specified exposure time. AUC refers to the area under the response curve, an indication of the compound's capability of activating a MOR.
One day before the assay, CORNING® black with clear flat bottom 96-well assay plates were coated with a 0.1 mg/mL Poly-L-Lysine solution. CHO-K1/MOR/Ga15 cells were suspended in the F12 medium and plated at a density of about 8×10^4 cells/well in […] medium. Cells were incubated in a humidified atmosphere of 10% CO2 at 37° C. overnight so as to reach an 80-90% confluent cell monolayer before the assay. On the day of the assay, 150 μL medium/well was removed from plate. […] Compounds and other reagents were dissolved in the assay buffer. […] The [Ca^2+]i fluorescence was measured up to 90 s after agonist injection.

Assay [2] has as its target T1, human mu-opioid receptor (Homo sapiens, UniProt P35372).
T1 construct: expressed in transfected cells; host or cells: HEK-293 (HEK-MOR), kept under G418
In words: cell-based. The format is cell-based. The protocol:
Cells (72,000 per well) were plated in 100 μl/well of DMEM in 96-well solid-bottom white plates (GIBCO) and 50 μl/well of drug in HBSS in the presence of forskolin and 3-isobutyl-1-methylxanthine at final concentrations of 1 μM and 500 μM, respectively. After 30 min of incubation at room temperature, the concentration of cyclic adenosine monophosphate was determined using a LANCE Ultra cAMP Assay kit (PerkinElmer).
As MOR belongs to the GPCR family, activation of MOR leads to a decrease in intracellular cAMP level.

Sequence of MOR (P35372 whole entry): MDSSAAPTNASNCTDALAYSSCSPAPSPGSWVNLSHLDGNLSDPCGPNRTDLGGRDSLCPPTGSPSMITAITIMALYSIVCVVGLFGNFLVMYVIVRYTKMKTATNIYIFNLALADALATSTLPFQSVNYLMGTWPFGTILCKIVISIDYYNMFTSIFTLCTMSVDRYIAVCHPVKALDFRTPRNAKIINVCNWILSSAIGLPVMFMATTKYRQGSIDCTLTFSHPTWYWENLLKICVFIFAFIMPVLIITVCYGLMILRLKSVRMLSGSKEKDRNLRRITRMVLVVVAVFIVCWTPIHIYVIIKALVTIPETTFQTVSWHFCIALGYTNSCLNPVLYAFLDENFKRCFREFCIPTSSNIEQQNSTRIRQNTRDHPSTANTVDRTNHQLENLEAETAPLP
T1 sequence (P35372 whole entry): as above

In the case of `O=C(NCC1c2ccccc2CCN1S(=O)(=O)c1ccc(Br)cc1OC(F)(F)F)C1CC1` (stereo not drawn) [Compound 28, N-[(2-{[4-Bromo-2-(trifluoromethoxy)phenyl]sulfonyl}-1,2,3,4-tetrahydro-1-isoquinolinyl)methyl]cyclopropanecarboxamide], the concentration for a half-maximal effect (EC50) in assay [1] (CHO-K1/MOR/Ga15 cells) is 5030 nM. For the same compound, the “FLIPR Ca2+ AUC” value in assay [1] is listed as 11880.

In the case of `CC(C)(C)C(=O)NCC1c2ccccc2CCN1S(=O)(=O)c1ccc(Br)cc1OC(F)(F)F` (stereo not drawn) [Compound 29, N-[(2-{[4-Bromo-2-(trifluoromethoxy)phenyl]sulfonyl}-1,2,3,4-tetrahydro-1-isoquinolinyl)methyl]-2,2-dimethylpropanamide], the 50% effective concentration (EC50) in assay [1] (CHO-K1/MOR/Ga15 cells) came out at 4610 nM. Besides, the “FLIPR Ca2+ AUC” value in assay [1] turned out to be 12780.

With `O=C(NCC1NCCc2ccccc21)N1CCCCC1` (stereo not drawn) [Compound 35, N-(1,2,3,4-Tetrahydro-1-isoquinolinylmethyl)-1-piperidinecarboxamide], the EC50 in assay [1] (CHO-K1/MOR/Ga15 cells) is 3310 nM.

In the case of `O=C(NCC1NCCc2ccccc21)N1CCOCC1` (stereo not drawn) [Compound 36, N-(1,2,3,4-Tetrahydro-1-isoquinolinylmethyl)-4-morpholinecarboxamide], the EC50 in assay [1] (CHO-K1/MOR/Ga15 cells) was 8080 nM.

As to `O=C(NCC1NCCc2ccccc21)N1CCCC1` (stereo not drawn) [Compound 37, N-(1,2,3,4-Tetrahydro-1-isoquinolinylmethyl)-1-pyrrolidinecarboxamide], the EC50 in assay [1] (CHO-K1/MOR/Ga15 cells) came to 4020 nM. In addition, in assay [1], the “FLIPR Ca2+ AUC” value turned out to be 3480.

Turning to `Cc1ccc(C(=O)NCC2NCCc3ccccc32)cc1` (stereo not drawn) [Compound 38, 4-Methyl-N-(1,2,3,4-tetrahydro-1-isoquinolinylmethyl)benzamide], in assay [1], the EC50 was found to be 140 nM.

As to `CC1CCC(C(=O)NCC2NCCc3ccccc32)CC1` (stereo not drawn) [Compound 39, 4-Methyl-N-(1,2,3,4-tetrahydro-1-isoquinolinylmethyl)cyclohexanecarboxamide], the EC50 in assay [1] (CHO-K1/MOR/Ga15 cells) was determined as 1530 nM. In addition, the “FLIPR Ca2+ AUC” value in assay [1] turned out to be 12657.

Turning to `CCC1CCC(C(=O)NCC2NCCc3ccccc32)CC1` (stereo not drawn) [Compound 40, 4-Ethyl-N-(1,2,3,4-tetrahydro-1-isoquinolinylmethyl)cyclohexanecarboxamide], the EC50 in assay [1] (CHO-K1/MOR/Ga15 cells) was found to be 1120 nM. The “FLIPR Ca2+ AUC” value in assay [1] is recorded as 10059.

For `CC1CCCCC1C(=O)NCC1NCCc2ccccc21` (stereo not drawn) [Compound 41, 2-Methyl-N-(1,2,3,4-tetrahydro-1-isoquinolinylmethyl)cyclohexanecarboxamide], the EC50 in assay [1] (CHO-K1/MOR/Ga15 cells) stood at 10000 nM. Further, the “FLIPR Ca2+ AUC” value in assay [1] is listed as 5627.

For the compound `COC1CCC(C(=O)NCC2NCCc3ccccc32)CC1` (stereo not drawn) [Compound 42, 4-Methoxy-N-(1,2,3,4-tetrahydro-1-isoquinolinylmethyl)cyclohexanecarboxamide], the EC50 in assay [1] (CHO-K1/MOR/Ga15 cells) was determined as 6600 nM. For the same compound, the “FLIPR Ca2+ AUC” value in assay [1] turned out to be 5538.

For `O=C(NCC1NCCc2ccccc21)C1CCCC1` (stereo not drawn) [Compound 43, N-(1,2,3,4-Tetrahydro-1-isoquinolinylmethyl)cyclopentanecarboxamide], the EC50 in assay [1] (CHO-K1/MOR/Ga15 cells) was determined as 8910 nM. For the same compound, in assay [1], the “FLIPR Ca2+ AUC” value worked out at 5768.

Turning to `O=C(NCC1NCCc2ccccc21)C1CCC1` (stereo not drawn) [Compound 44, N-(1,2,3,4-Tetrahydro-1-isoquinolinylmethyl)cyclobutanecarboxamide], the EC50 in assay [1] (CHO-K1/MOR/Ga15 cells) was 6800 nM. For the same compound, the “FLIPR Ca2+ AUC” value in assay [1] stood at 3646.

With `O=C(NCC1NCCc2ccccc21)c1ccccc1` (stereo not drawn) [Compound 45, N-(1,2,3,4-Tetrahydro-1-isoquinolinylmethyl)benzamide], the EC50 in assay [1] (CHO-K1/MOR/Ga15 cells) came to 750 nM. For the same compound, the “FLIPR Ca2+ AUC” value in assay [1] is 8628.

As to `COc1ccc(C(=O)NCC2NCCc3ccccc32)cc1` (stereo not drawn) [Compound 46, 4-Methoxy-N-(1,2,3,4-tetrahydro-1-isoquinolinylmethyl)benzamide], in assay [1], the EC50 was 370 nM.

With `O=C(NCC1NCCc2ccccc21)c1ccc(OC(F)(F)F)cc1` (stereo not drawn) [Compound 47, N-(1,2,3,4-Tetrahydro-1-isoquinolinylmethyl)-4-(trifluoromethoxy)benzamide], the EC50 in assay [1] is 370 nM.

`O=C(NCC1NCCc2ccccc21)c1ccc(F)cc1` (stereo not drawn) [Compound 48, 4-Fluoro-N-(1,2,3,4-tetrahydro-1-isoquinolinylmethyl)benzamide]: the EC50 in assay [1] was found to be 540 nM.

With `O=C(NCC1NCCc2ccccc21)c1ccc(Cl)cc1` (stereo not drawn) [Compound 49, 4-Chloro-N-(1,2,3,4-tetrahydro-1-isoquinolinylmethyl)benzamide], the EC50 in assay [1] came out at 230 nM.

Turning to `CCc1ccc(C(=O)NCC2NCCc3ccccc32)cc1` (stereo not drawn) [Compound 50, 4-Ethyl-N-(1,2,3,4-tetrahydro-1-isoquinolinylmethyl)benzamide], the EC50 in assay [1] was determined as 60 nM.

As for `COc1cccc(C(=O)NCC2NCCc3ccccc32)c1` (stereo not drawn) [Compound 51, 3-Methoxy-N-(1,2,3,4-tetrahydro-1-isoquinolinylmethyl)benzamide], the EC50 in assay [1] (CHO-K1/MOR/Ga15 cells) stood at 860 nM. For the same compound, in assay [1], the “FLIPR Ca2+ AUC” value is on record as 13302.

For the compound `O=C(NCC1NCCc2ccccc21)c1cccc(F)c1` (stereo not drawn) [Compound 52, 3-Fluoro-N-(1,2,3,4-tetrahydro-1-isoquinolinylmethyl)benzamide], the EC50 in assay [1] (CHO-K1/MOR/Ga15 cells) is 780 nM. In addition, the “FLIPR Ca2+ AUC” value in assay [1] was 11425.

As to `O=C(NCC1NCCc2ccccc21)c1cccc(Cl)c1` (stereo not drawn) [Compound 53, 3-Chloro-N-(1,2,3,4-tetrahydro-1-isoquinolinylmethyl)benzamide], in assay [1] (CHO-K1/MOR/Ga15 cells), the EC50 is 380 nM. Also, in assay [1], the “FLIPR Ca2+ AUC” value amounted to 13149.

For the compound `Cc1cccc(C(=O)NCC2NCCc3ccccc32)c1` (stereo not drawn) [Compound 54, 3-Methyl-N-(1,2,3,4-tetrahydro-1-isoquinolinylmethyl)benzamide], the EC50 in assay [1] came to 370 nM.

Turning to `COc1ccccc1C(=O)NCC1NCCc2ccccc21` (stereo not drawn) [Compound 55, 2-Methoxy-N-(1,2,3,4-tetrahydro-1-isoquinolinylmethyl)benzamide], the 50% effective concentration (EC50) in assay [1] (CHO-K1/MOR/Ga15 cells) is 3310 nM. Moreover, the “FLIPR Ca2+ AUC” value in assay [1] was 4312.

Consider `O=C(NCC1NCCc2ccccc21)c1ccccc1OC(F)(F)F` (stereo not drawn) [Compound 56, N-(1,2,3,4-Tetrahydro-1-isoquinolinylmethyl)-2-(trifluoromethoxy)benzamide], for which the EC50 in assay [1] (CHO-K1/MOR/Ga15 cells) came out at 3310 nM. In addition, the “FLIPR Ca2+ AUC” value in assay [1] turned out to be 7855.

Take `O=C(NCC1NCCc2ccccc21)c1ccccc1F` (stereo not drawn) [Compound 57, 2-Fluoro-N-(1,2,3,4-tetrahydro-1-isoquinolinylmethyl)benzamide]: the EC50 in assay [1] (CHO-K1/MOR/Ga15 cells) is 3280 nM. Further, the “FLIPR Ca2+ AUC” value in assay [1] is 12102.

On to `Cc1ccc(C(=O)NCC2NCCc3ccccc32)cc1C` (stereo not drawn) [Compound 58, 3,4-Dimethyl-N-(1,2,3,4-tetrahydro-1-isoquinolinylmethyl)benzamide], for which, in assay [1], the EC50 is 120 nM.

In the case of `O=C(NCC1NCCc2ccccc21)c1ccc(Cl)c(Cl)c1` (stereo not drawn) [Compound 59, 3,4-Dichloro-N-(1,2,3,4-tetrahydro-1-isoquinolinylmethyl)benzamide], the EC50 in assay [1] worked out at 250 nM.

Turning to `Cc1ccc(C(=O)NCC2NCCc3ccccc32)c(C)c1` (stereo not drawn) [Compound 60, 2,4-Dimethyl-N-(1,2,3,4-tetrahydro-1-isoquinolinylmethyl)benzamide], in assay [1] (CHO-K1/MOR/Ga15 cells), the EC50 was determined as 660 nM. The “FLIPR Ca2+ AUC” value in assay [1] was 13375.

For the compound `Cc1ccc(C(=O)NCC2c3ccccc3CCN2C)cc1` (stereo not drawn) [Compound 61, 4-Methyl-N-[(2-methyl-1,2,3,4-tetrahydro-1-isoquinolinyl)methyl]benzamide], the EC50 in assay [1] (CHO-K1/MOR/Ga15 cells) was 40 nM. The “FLIPR Ca2+ AUC” value in assay [1] is recorded as 14757.

Take `CCCCN1CCc2ccccc2C1CNC(=O)c1ccc(C)cc1` (stereo not drawn) [Compound 62, N-[(2-Butyl-1,2,3,4-tetrahydro-1-isoquinolinyl)methyl]-4-methylbenzamide]: the EC50 in assay [1] (CHO-K1/MOR/Ga15 cells) was 160 nM. Moreover, the “FLIPR Ca2+ AUC” value in assay [1] is listed as 14669.

`Cc1ccc(C(=O)NCC2c3ccccc3CCN2CC(C)C)cc1` (stereo not drawn) [Compound 63, 4-Methyl-N-{[2-(2-methylpropyl)-1,2,3,4-tetrahydro-1-isoquinolinyl]methyl}benzamide]: the EC50 in assay [1] (CHO-K1/MOR/Ga15 cells) came out at 110 nM. Further, the “FLIPR Ca2+ AUC” value in assay [1] was determined as 18418.

With `Cc1ccc(C(=O)NCC2c3ccccc3CCN2CCCl)cc1` (stereo not drawn) [Compound 64, N-{[2-(2-Chloroethyl)-1,2,3,4-tetrahydro-1-isoquinolinyl]methyl}-4-methylbenzamide], the EC50 in assay [1] (CHO-K1/MOR/Ga15 cells) is 30 nM.

`CCc1ccc(C(=O)NCC2c3ccccc3CCN2C)cc1` (stereo not drawn) [Compound 65, 4-Ethyl-N-[(2-methyl-1,2,3,4-tetrahydro-1-isoquinolinyl)methyl]benzamide]: the EC50 in assay [1] (CHO-K1/MOR/Ga15 cells) came out at 10 nM. For the same compound, the “FLIPR Ca2+ AUC” value in assay [1] came out at 18367.

Consider `Cc1ccc(C(=O)NCC2c3ccccc3CCN2C)cc1C` (stereo not drawn) [Compound 66, 3,4-Dimethyl-N-[(2-methyl-1,2,3,4-tetrahydro-1-isoquinolinyl)methyl]benzamide], for which, in assay [1] (CHO-K1/MOR/Ga15 cells), the EC50 is 10 nM. For the same compound, the “FLIPR Ca2+ AUC” value in assay [1] came to 17393.

With “[Met5]enkephalin [Met-5, reference compound]”, the cAMP production entry in assay [2] was “significantly decreased cAMP production”.
